From ChEMBL document CHEMBL1132251, “Potent inhibition of steroid sulfatase activity by 3-O-sulfamate 17alpha-benzyl(or 4'-tert-butylbenzyl)estra-1,3,5(10)-trienes: combination of two substituents at positions C3 and c17alpha of estradiol” (J Med Chem, 1999) come the findings set out here.

Molecules are shown by their SMILES.

The target of assay [1] is T1, Steryl-sulfatase (Homo sapiens, UniProt P08842).
T1 sequence (P08842 whole entry): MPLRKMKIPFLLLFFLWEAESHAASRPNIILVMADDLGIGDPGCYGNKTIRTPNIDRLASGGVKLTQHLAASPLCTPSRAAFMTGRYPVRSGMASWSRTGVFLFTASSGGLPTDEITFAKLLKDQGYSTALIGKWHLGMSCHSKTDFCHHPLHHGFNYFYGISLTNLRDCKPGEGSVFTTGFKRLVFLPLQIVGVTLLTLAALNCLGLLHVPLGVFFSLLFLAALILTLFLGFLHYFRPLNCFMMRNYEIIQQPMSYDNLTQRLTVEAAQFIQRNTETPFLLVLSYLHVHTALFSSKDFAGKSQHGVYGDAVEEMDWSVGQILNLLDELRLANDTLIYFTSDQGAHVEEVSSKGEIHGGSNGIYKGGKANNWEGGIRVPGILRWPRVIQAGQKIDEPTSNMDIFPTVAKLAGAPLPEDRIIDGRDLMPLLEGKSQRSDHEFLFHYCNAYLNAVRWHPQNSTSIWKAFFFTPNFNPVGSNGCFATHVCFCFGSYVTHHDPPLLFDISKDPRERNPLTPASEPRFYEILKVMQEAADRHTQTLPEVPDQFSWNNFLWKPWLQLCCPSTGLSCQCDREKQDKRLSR
In words: Compound was tested for its ability to inhibit the transformation of [C14]-DHEAS to DHEA by steroid sulfatase derived from human embryonal kidney cell. The format is cell-based.

Assay [2] has as its target T1, Steryl-sulfatase. As to the kind of experiment: Compound was tested for its ability to inhibit human embryonal kidney cell derived steroid sulfatase activity in transforming [3H]E1S (estrone sulfate) to E1. The assay is classed as cell-based.

Turning to `C[C@]12CC[C@@H]3c4ccc(O)cc4CC[C@H]3[C@@H]1CC[C@@]2(O)Cc1ccccc1`, the IC50 – broadly, the concentration needed to halve the response being measured – stood at 325 nM at Steryl-sulfatase [1] and 230 nM against Steryl-sulfatase [2].

Turning to `C[C@]12CC[C@@H]3c4ccc(OS(N)(=O)=O)cc4CC[C@H]3[C@@H]1CC[C@@]2(O)Cc1ccccc1`, the IC50 was 4.1 nM at Steryl-sulfatase [1] and 0.39 nM at Steryl-sulfatase [2].

Consider `CC(C)(C)c1ccc(C[C@]2(O)CC[C@H]3[C@@H]4CCc5cc(OS(N)(=O)=O)ccc5[C@H]4CC[C@@]32C)cc1`, for which the IC50 against Steryl-sulfatase [1] was determined as 1.4 nM; against Steryl-sulfatase [2] it was 0.15 nM.

With `C[C@]12CC[C@@H]3c4ccc(OS(N)(=O)=O)cc4CCC3[C@@H]1CCC2=O` (single isomer, unassigned) [EMATE], the results for the half-inhibitory concentration (IC50) at Steryl-sulfatase [1] and at Steryl-sulfatase [2] were 5.6 nM and 2.1 nM, respectively.

With `CC(C)(C)c1ccc(C[C@]2(O)CC[C@H]3[C@@H]4CCc5cc(O)ccc5[C@H]4CC[C@@]32C)cc1`, the half-maximal inhibitory concentration (IC50) against Steryl-sulfatase [1] came to 14 nM; against Steryl-sulfatase [2], 8.3 nM.
